Source: US7462478B2, “Polynucleotide encoding 2-hydroxyisoflavanone dehydratase and application of the same” (Nihon University, priority 2003, dated 2008)
Values joined by “and” are separate entries in the source; they are usually repeats but may differ in a detail not shown here. Equal entries are not always repeated. Blank lines part the entries; values can stand above or below the compound they belong to.

Columns and labels:
[1] = system: 2-hydroxyisoflavanone dehydratase in cell-free extract of soybean seedling; assay: 2-hydroxyisoflavanone dehydratase assay, soybean crude extract; format: biochemical, Glycine max; settings: for Specific activity, Soybean Crude extract: rate of isoflavone production, 30° C., 10 minutes, mean ± SD of three experiments
Protocol: (§1) All procedures were carried out at 4° C. Licorice cells (10 g) after elicitor treatment (for 24 hours) or 1-week old soybean raised from seeds (10 g) were homogenized in a mortar with 10 ml of a 100-mM potassium phosphate buffer (pH 7.5) containing 10% sucrose and 14 mM of 2-mercaptoethanol and with sea sand (2.5 g). The resulting homogenate was filtered through gauze and then centrifuged at 10,000×g for 10 minutes. Supernatant was mixed with 2.5 g of Dowex 1-X2 (equilibrated with a 100-mM potassium phosphate buffer), followed by standing for 20 minutes. The solution obtained from the filtration was fractionated with ammonium sulfate and a 30-80% saturated fraction was then demineralized through a Sephadex G-25 column and dissolved in a 100-mM potassium phosphate buffer (pH 7.5) containing 10% sucrose and 14-mM 2-mercaptoethanol, followed by being used in the assay (approximately 600 μg/ml of protein).
(§2) An enzyme preparation was added to 2,7,4′-trihydroxyisoflavanone, 2,7-dihydroxy-4′-methoxyisoflavanone, or 2,5,7,4′-tetrahydroxyisoflavanone (5 nmol each) in 2-methoxyethanol so as to be in a total volume of 100 μl, and then the whole was incubated at 30° C. for 10 minutes.
(§3) A concentrated ethyl acetate extract was incubated with recombinant licorice HIDM (1 μg) at 30° C. for 10 minutes. An ethyl acetate extract from the mixture was analyzed by high-performance liquid chromatography (HPLC). The HPLC for both daidzein and formononetin analysis was carried out using a Capcell pak C18 MG column (4.6×150 mm; Shiseido Co., Ltd.) at 40° C. (flow volume=0.8 ml/min) (Non-Patent Document 12) with a linear gradient elution for 40 minutes from 35% to 55% methanol in 3% aqueous acetic acid. 5-Hydroxyisoflavones were analyzed using a Capcell pak C18MG column (4.6×150 mm; Shiseido Co., Ltd.) with a 50% methanol aqueous solution (for genistein) or a 55% methanol aqueous solution (for biochanin A) at 40° C. (flow rate=0.8 ml/min).
(§4) The purified recombinant protein (approximately 10 ng of protein) and cell-free extracts of licorice and soybean (approximately 10 μg of protein) were used to determine their specific activity. The concentration of isoflavone was calculated from the HPL peak area of the standard sample of each of daidzein, formononetin, and genistein.

[2] = target: T1, recombinant soybean HIDH (2-hydroxyisoflavanone dehydratase) (Glycine max, UniProt Q5NUF3); assay: 2-hydroxyisoflavanone dehydratase assay, recombinant soybean HIDH; format: biochemical; settings: for Specific activity, Soybean Recombinant protein: purified recombinant protein, rate of isoflavone production, mean ± SD of three experiments
T1 construct: the NdeI-BamHI fragment of soybean cDNA (HIDH) was also subcloned into the corresponding sites of the pET28a; made in house; host or cells: E. coli BL21 (DE3), vector pET28a, purified with HisTrap Kit
T1 sequence (Q5NUF3 1-319): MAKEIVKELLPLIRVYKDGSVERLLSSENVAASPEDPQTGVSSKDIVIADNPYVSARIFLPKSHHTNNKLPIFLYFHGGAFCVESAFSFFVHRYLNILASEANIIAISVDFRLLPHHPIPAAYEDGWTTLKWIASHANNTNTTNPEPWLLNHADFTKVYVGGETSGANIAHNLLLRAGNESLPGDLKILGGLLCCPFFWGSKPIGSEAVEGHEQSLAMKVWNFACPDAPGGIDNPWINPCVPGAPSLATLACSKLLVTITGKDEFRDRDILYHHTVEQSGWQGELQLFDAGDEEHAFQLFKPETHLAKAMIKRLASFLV
Protocol: as §2, §3, §4
(§5) The NdeI-BamHI fragment of the PCR product from licorice HIDM was cloned into the corresponding sites of pET28a (Novagen Ltd.). In addition, the NdeI-BamHI fragment of soybean cDNA (HIDH) was also subcloned into the corresponding sites of the pET28a. The expression and purification of recombinant 2-hydroxyisoflavanone dehydratases were carried out by the following procedures (Non-Patent Document 12). The E. coli BL21 (DE3) cells transformed with the vector containing HIDM or HIDH were incubated up to OD600=0.4 in a LB/ampicillin medium supplemented with 20 ml of 50 μg/ml kanamycin or ampicillin at 30° C. IPTG was added to the culture so as to be a final concentration of 1.0 mM and the whole was incubated at 30° C. for six hours. The licorice HIDM and soybean HIDH were purified from the crude extracts of HIDM and HIDH-expression E. coli using HisTrap Kit (Amersham Biosciences Corporation), respectively.

[3] = target: T2, recombinant licorice HIDM (2-hydroxyisoflavanone dehydratase) (Glycyrrhiza echinata, UniProt Q5NUF4); assay: 2-hydroxyisoflavanone dehydratase assay, recombinant licorice HIDM; format: biochemical; settings: for Specific activity, Licorice Recombinant protein: purified recombinant protein, rate of isoflavone production, mean ± SD of three experiments
T2 construct: The NdeI-BamHI fragment of the PCR product from licorice HIDM was cloned into the corresponding sites of pET28a; made in house; host or cells: E. coli BL21 (DE3), vector pET28a, purified with HisTrap Kit
T2 sequence (Q5NUF4 1-328): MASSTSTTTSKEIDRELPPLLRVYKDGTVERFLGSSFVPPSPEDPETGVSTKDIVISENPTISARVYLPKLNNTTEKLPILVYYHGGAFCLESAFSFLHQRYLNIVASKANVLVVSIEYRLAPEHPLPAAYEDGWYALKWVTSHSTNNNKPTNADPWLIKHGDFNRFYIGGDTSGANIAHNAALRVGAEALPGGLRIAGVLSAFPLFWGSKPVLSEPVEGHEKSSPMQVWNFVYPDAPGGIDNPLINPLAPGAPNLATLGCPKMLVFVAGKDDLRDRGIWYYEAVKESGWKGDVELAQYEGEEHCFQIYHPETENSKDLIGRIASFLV
Protocol: as §2
The assay of 2,5,7-trihydroxy-4′-methoxyisoflavanone dehyderatase (biochanin A synthetase) was carried out as follows. 2,5,7,4′-tetrahydroxyisoflavanone (10 nmol) dissolved in 2-methoxyethanol was incubated together with licorice HI4′OMT (1 μg) and 1 μmol of S-adenosyl-L-methionine (SAM) at 30° C. for 15 minutes.
as §3, §4, §5

[4] = target: T3, 2-hydroxyisoflavanone dehydratase in cell-free extract of licorice cells (strain AK-1) (Glycyrrhiza echinata, UniProt Q5NUF4); assay: 2-hydroxyisoflavanone dehydratase assay, licorice crude extract; format: biochemical; settings: for Specific activity, Licorice Crude extract: rate of isoflavone production, 30° C., 10 minutes, mean ± SD of three experiments
T3 construct: Licorice cells (10 g) after elicitor treatment (for 24 hours) or 1-week old soybean raised from seeds (10 g) were homogenized; endogenous in cells; host or cells: elicitor-treated licorice cultured cells (strain AK-1); 30-80% ammonium sulfate fraction of the cell-free extract
T3 sequence (Q5NUF4 1-328): T2 sequence (Q5NUF4 1-328)
Protocol: as §1, §2
as §3, with “(flow volume=0.8 ml/min) (Non-Patent Document 12) with a linear gradient elution for 40 minutes from 35% to 55% methanol in 3% aqueous acetic acid.” left out, “(flow rate=0.8 ml/min).” left out
as §4

[5] = system: Carboxylesterase from pig liver; assay: 2-hydroxyisoflavanone dehydratase assay, carboxylesterase from pig liver; format: biochemical
Protocol: as §2
as §3, with “(flow volume=0.8 ml/min) (Non-Patent Document 12) with a linear gradient elution for 40 minutes from 35% to 55% methanol in 3% aqueous acetic acid.” left out, “(flow rate=0.8 ml/min).” left out
The specific carboxylesterase activities of recombinant licorice HIDM and soybean HIDH proteins were calculated from the generation rate of p-nitrophenol measured at 30° C. by an absorbance at 400 nm in 1.5 ml of a 50-mM Tris-HCl buffer containing 150 mM of NaCl and 750 nmol of p-nitrophenyl butyrate (Heymann 1981). […] Thermally-denatured (100° C., 10 minutes) licorice HIDM, soybean HIDH, and pig liver carboxylesterase protein were analyzed as negative controls, respectively.

[6] = system: 2-hydroxyisoflavanone dehydratase of P. lobata; settings: Hakamatsuka et al., 1998; cited from earlier work
recombinant soybean HIDH = target: T4, recombinant soybean HIDH (Glycine max, UniProt Q5NUF3); assay: Carboxylesterase activity of recombinant soybean HIDH; format: biochemical
T4 construct: the NdeI-BamHI fragment of soybean cDNA (HIDH) was also subcloned into the corresponding sites of the pET28a; made in house; host or cells: E. coli BL21 (DE3), vector pET28a, purified with HisTrap Kit
T4 sequence (Q5NUF3 1-319): T1 sequence (Q5NUF3 1-319)
Protocol: (§6) The specific carboxylesterase activities of recombinant licorice HIDM and soybean HIDH proteins were calculated from the generation rate of p-nitrophenol measured at 30° C. by an absorbance at 400 nm in 1.5 ml of a 50-mM Tris-HCl buffer containing 150 mM of NaCl and 750 nmol of p-nitrophenyl butyrate (Heymann 1981). Commercially-available pig liver carboxylesterase (Sigma Corporation) was used as a positive control. Thermally-denatured (100° C., 10 minutes) licorice HIDM, soybean HIDH, and pig liver carboxylesterase protein were analyzed as negative controls, respectively.

[7] = system: Carboxylesterase from pig liver; assay: Carboxylesterase activity of pig liver carboxylesterase (positive control); format: biochemical; settings: rate of p-nitrophenol production, 30° C., absorbance at 400 nm
Protocol: as §6

[8] = target: T5, recombinant licorice HIDM (Glycyrrhiza echinata, UniProt Q5NUF4); assay: Carboxylesterase activity of recombinant licorice HIDM; format: biochemical
T5 construct: The NdeI-BamHI fragment of the PCR product from licorice HIDM was cloned into the corresponding sites of pET28a; made in house; host or cells: E. coli BL21 (DE3), vector pET28a, purified with HisTrap Kit
T5 sequence (Q5NUF4 1-328): T2 sequence (Q5NUF4 1-328)
Protocol: as §6

[9] = rate of p-nitrophenol production, 30° C., absorbance at 400 nm

Specific activity, Soybean Recombinant protein [2]: 3.55 ± 0.6 nkatal/mg | Product formation by soybean HIDH (HPLC) ([2]; recombinant soybean HIDH): catalyzed the production of genisein
Compound: O=C1c2c(O)cc(O)cc2OC(O)C1c1ccc(O)cc1 (stereo not drawn) [2,5,7,4′-tetrahydroxyisoflavanone]
Specific activity, Soybean Crude extract [1]: 19.6 ± 3 pkatal/mg | Production of genistein, level with respect to the production of daidzein ([1]; soybean extract): approximately 1/10

Compound: COc1ccc(C2C(=O)c3c(O)cc(O)cc3OC2O)cc1 (stereo not drawn) [2,5,7-trihydroxy-4′-methoxyisoflavanone]
Product detected by HPLC after incubation with licorice HIDM ([3]; substrate made with HI4′OMT and SAM, HIDM 1 μg, 30° C., 10 minutes): biochanin A was detected

Compound: O=C1c2ccc(O)cc2OC(O)C1c1ccc(O)cc1 (stereo not drawn) [2,7,4′-trihydroxyisoflavanone]
Activity (daidzein production), times as small as the production of formononetin ([4]; licorice extract, versus 2,7-dihydroxy-4′-methoxyisoflavanone): approximately 160 times | Specific activity, Licorice Crude extract [4]: 0.8 ± 0.03 pkatal/mg | Dehydration by carboxylesterase from pig liver [5]: did not dehydrate | Specific activity, Carboxylesterase from pig liver (dehydration) ([5]; rate of isoflavone production): 0 nkatal/mg | Specific activity, Soybean Crude extract [1]: 197.3 ± 15 pkatal/mg | Specific activity of dehydratase of P. lobata [6]: 56.8 mkatal/kg protein | Specific activity, Soybean Recombinant protein [2]: 43.6 nkatal/mg and 43.6 ± 4 nkatal/mg | Specific activity, Licorice Recombinant protein [3]: 0.70 ± 0.08 nkatal/mg

Compound: COc1ccc(C2C(=O)c3ccc(O)cc3OC2O)cc1 (stereo not drawn) [2,7-dihydroxy-4′-methoxyisoflavanone]
Specific activity, Licorice Crude extract [4]: 123.0 ± 8 pkatal/mg | Specific activity, Soybean Crude extract [1]: 97.4 ± 10 pkatal/mg | Specific activity, Soybean Recombinant protein [2]: 0.90 ± 0.1 nkatal/mg | Specific activity, Licorice Recombinant protein [3]: 52.1 ± 1.5 nkatal/mg | Specific activity of licorice HIDM, times as high as to 2,7,4′-trihydroxyisoflavanone ([3]; recombinant licorice HIDM): 74 times

Compound: CCCC(=O)Oc1ccc([N+](=O)[O-])cc1 [p-nitrophenyl butyrate]
Carboxylesterase activity of recombinant soybean dehydratase (recombinant soybean HIDH): weak activity | Carboxylesterase activity of soybean HIDH as fraction of the pig liver enzyme (recombinant soybean HIDH): approximately 1/50 | Specific carboxylesterase activity, Soybean Recombinant protein (recombinant soybean HIDH; [9]): 7.20 ± 0.4 (f) nkatal/mg | Specific carboxylesterase activity, Carboxylesterase from pig liver [7]: 425 ± 7 (f) nkatal/mg | Carboxylesterase activity of recombinant licorice dehydratase [8]: weak activity | Specific carboxylesterase activity, Licorice Recombinant protein [8, 9]: 0.32 ± 0.07 (f) nkatal/mg
